Reference: US10435431B2, “3,3 disubstituted 19-nor pregnane compounds, compositions, and uses thereof” (Sage Therapeutics, Inc., priority 2011, dated 2019)
pIC50: −log10 of the molar value.

Key:
[1] = molecular target: T1, Recombinant α1β2γ2 GABAA Receptors (Homo sapiens, UniProt P14867+P47870); experiment: Patch clamp electrophysiology of recombinant α1β2γ2 GABAA receptors, potentiation of GABA mediated currents; type: cell-based; settings: Ltk cells, GABA EC10=0.5 μM, whole cell patch clamp; for % potentiation at 100 nM: test article 100 nM; for % potentiation at 1000 nM: test article 1000 nM; for % potentiation at 10000 nM: test article 10000 nM
T1 construct: expressed in transfected cells; host or cells: Ltk cells
T1 sequence (P14867 28-456): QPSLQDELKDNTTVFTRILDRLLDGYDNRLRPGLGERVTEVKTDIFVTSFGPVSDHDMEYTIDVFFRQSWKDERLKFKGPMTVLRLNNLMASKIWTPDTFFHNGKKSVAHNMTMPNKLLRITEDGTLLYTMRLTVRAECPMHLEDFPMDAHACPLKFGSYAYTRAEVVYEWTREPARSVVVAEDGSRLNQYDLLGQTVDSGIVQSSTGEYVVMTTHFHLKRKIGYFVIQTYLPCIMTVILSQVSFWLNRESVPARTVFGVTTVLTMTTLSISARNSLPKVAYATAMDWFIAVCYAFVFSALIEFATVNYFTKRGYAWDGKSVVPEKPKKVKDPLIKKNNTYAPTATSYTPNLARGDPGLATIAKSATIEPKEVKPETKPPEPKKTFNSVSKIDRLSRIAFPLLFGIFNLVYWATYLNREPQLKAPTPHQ
T1 sequence (P47870 25-512 limits assumed): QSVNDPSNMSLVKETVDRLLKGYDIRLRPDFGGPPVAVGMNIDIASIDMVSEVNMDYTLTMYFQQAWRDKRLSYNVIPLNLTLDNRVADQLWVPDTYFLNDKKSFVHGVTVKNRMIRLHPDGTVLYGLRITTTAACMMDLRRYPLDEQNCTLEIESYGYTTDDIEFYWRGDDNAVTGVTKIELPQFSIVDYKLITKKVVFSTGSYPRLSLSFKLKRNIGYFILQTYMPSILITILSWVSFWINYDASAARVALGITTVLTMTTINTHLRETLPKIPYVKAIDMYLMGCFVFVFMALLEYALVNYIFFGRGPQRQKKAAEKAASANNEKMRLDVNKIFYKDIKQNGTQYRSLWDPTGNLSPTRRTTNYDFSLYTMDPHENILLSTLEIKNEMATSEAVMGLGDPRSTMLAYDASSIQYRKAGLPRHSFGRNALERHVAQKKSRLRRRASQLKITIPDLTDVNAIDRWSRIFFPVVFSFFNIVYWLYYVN
T1 sequence (P18507 40-475 partner): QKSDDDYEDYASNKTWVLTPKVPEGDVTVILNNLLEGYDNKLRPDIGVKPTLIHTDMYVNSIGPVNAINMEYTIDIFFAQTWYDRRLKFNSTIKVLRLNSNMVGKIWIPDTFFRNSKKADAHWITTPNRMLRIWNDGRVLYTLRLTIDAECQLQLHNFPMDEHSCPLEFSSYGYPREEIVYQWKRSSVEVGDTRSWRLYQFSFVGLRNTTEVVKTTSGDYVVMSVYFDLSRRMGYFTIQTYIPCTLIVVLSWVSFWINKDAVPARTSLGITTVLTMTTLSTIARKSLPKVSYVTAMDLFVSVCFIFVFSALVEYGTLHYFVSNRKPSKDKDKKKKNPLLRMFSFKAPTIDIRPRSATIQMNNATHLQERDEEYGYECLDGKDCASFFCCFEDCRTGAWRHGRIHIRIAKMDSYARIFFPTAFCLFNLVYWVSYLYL
Description: Patch Clamp Electrophysiology of Recombinant α1β2γ2 GABAA Receptors
Cellular electrophysiology is used to measure in vitro potency and efficacy of our GABAA receptor modulators in Ltk cells. Each compound is tested for its ability to affect GABA mediated currents at a submaximal agonist dose (GABA EC10=0.5 μM) in a whole cell patch clamp technique using a EPC-10, HEKA Electronics Amplifier and PatchMaster software. These experiments measure potency, efficacy (Emax), direct gating properties and acute desensitization. Test article is added at 0.1, 1.0 and 10 uM.

[2] = molecular target: [35S]-TBPS binding, rat brain cortical membranes; experiment: Steroid inhibition of [35S]-TBPS binding; settings: 2 nM [35S]-TBPS, in the presence of 5 μM GABA
Description: Steroid Inhibition of TBPS Binding
TBPS binding assays using rat brain cortical membranes in the presence of 5 μM GABA has been described (Gee et al, J. Pharmacol. Exp. Ther. 1987, 241, 346-353; Hawkinson et al, Mol. Pharmacol. 1994, 46, 977-985).
Briefly, cortices are rapidly removed following decapitation of carbon dioxide-anesthetized Sprague-Dawley rats (200-250 g). The cortices are homogenized in 10 volumes of ice-cold 0.32 M sucrose using a glass/teflon homogenizer and centrifuged at 1500×g for 10 min at 4° C. The resultant supernatants are centrifuged at 10,000×g for 20 min at 4° C. to obtain the P2 pellets. The P2 pellets are resuspended in 200 mM NaCl/50 mM Na—K phosphate pH 7.4 buffer and centrifuged at 10,000×g for 10 min at 4° C. This ishing procedure is repeated twice and the pellets are resuspended in 10 volumes of buffer. Aliquots (100 μL) of the membrane suspensions are incubated with 2 nM [^35S]-TBPS and 5 μL aliquots of test drug dissolved in dimethyl sulfoxide (DMSO) (final 0.5%) in the presence of 5 μM GABA. The incubation is brought to a final volume of 1.0 mL with buffer. Nonspecific binding is determined in the presence of 2 μM unlabeled TBPS and ranged from 15 to 25%. Following a 90 min incubation at room temp, the assays are terminated by filtration through glass fiber filters (Schleicher and Schuell No. 32) using a cell harvester (Brandel) and rinsed three times with ice-cold buffer. Filter bound radioactivity is measured by liquid scintillation spectrometry. Non-linear curve fitting of the overall data for each drug averaged for each concentration is done using Prism (GraphPad). […] The concentration of test compound producing 50% inhibition (IC50) of specific binding and the maximal extent of inhibition (Imax) are determined for the individual experiments with the same model used for the overall data and then the means±SEM.s of the individual experiments are calculated.
Various compounds are or can be screened to determine their potential as modulators of [^35S]-TBPS binding in vitro. These assays are or can be performed in accordance with the above discussed procedures.

C[C@@]1(O)CC[C@H]2[C@H](CC[C@@H]3[C@@H]2CC[C@]2(C)[C@@H](C(=O)CO)CC[C@@H]32)C1
% potentiation at 100 nM [1]: 101%
% potentiation at 1000 nM [1]: 163%
pIC50 [2]: 7.07

CC(=O)[C@H]1CC[C@H]2[C@@H]3CC[C@@H]4C[C@@](O)(C(F)F)CC[C@@H]4[C@H]3CC[C@]12C
pIC50 [2]: 7.48

COC[C@@]1(O)CC[C@H]2[C@H](CC[C@@H]3[C@@H]2CC[C@]2(C)[C@@H](C(=O)CO)CC[C@@H]32)C1
pIC50 [2]: 6.77

COC[C@@]1(O)CC[C@H]2[C@H](CC[C@@H]3[C@@H]2CC[C@]2(C)[C@@H](C(C)=O)CC[C@@H]32)C1
pIC50 [2]: 7.39

CC(=O)[C@H]1CC[C@H]2[C@@H]3CC[C@H]4C[C@](C)(O)CC[C@@H]4[C@H]3CC[C@]12C
% potentiation at 100 nM [1]: 80%
% potentiation at 1000 nM [1]: 157%
% potentiation at 10000 nM [1]: 270%
pIC50 [2]: 7.03

C[C@@]1(O)CC[C@H]2[C@@H](CC[C@@H]3[C@@H]2CC[C@]2(C)[C@@H](C(=O)CO)CC[C@@H]32)C1
% potentiation at 1000 nM [1]: 130%
% potentiation at 10000 nM [1]: 227%
pIC50 [2]: 6.66

C[C@]12CC[C@H]3[C@@H](CC[C@H]4C[C@@](O)(C(F)F)CC[C@@H]43)[C@@H]1CC[C@@H]2C(=O)CO
% potentiation at 1000 nM [1]: 0%
% potentiation at 10000 nM [1]: 100%
pIC50 [2]: < 5.00

COC[C@@]1(O)CC[C@H]2[C@@H](CC[C@@H]3[C@@H]2CC[C@]2(C)[C@@H](C(=O)CO)CC[C@@H]32)C1
pIC50 [2]: 7.03

CC(=O)[C@H]1CC[C@H]2[C@@H]3CC[C@@H]4C[C@](O)(CF)CC[C@@H]4[C@H]3CC[C@]12C
pIC50 [2]: 7.00
